Measured values as given in PMC5299038 (Structure (London, England : 1993), 2017).

What was measured:
[1] = biological target: TpCADE (Trueperella pyogenes, UniProt Z9JAQ5MWQ7); assay: coupled glucose oxidase assay; type: biochemical; details: hydrolysis of the alpha-1,3-linkages
[2] = tested on: TpCADE; details: hydrolysis of the alpha-1,3-linkages

cycloalternan
Km [1]: 2.1 ± 0.2 mM | Km [2]: 9.3 ± 1.5 mM
